Experimental data published in patent US20100183600A1, “RAF Inhibitors and Their Uses” (ARQULE, INC., priority 2008, published 2010).
One block for each compound: values may come before it.

Tests used:
Assay in all cases: Cell growth inhibition assay (MTS)
Type in all cases: cell-based
SK-MEL-2 = conditions: Homo sapiens; SK-MEL-2, 72 hours
Method in brief: (§1)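 Growth inhibition was measured as loss of dehydrogenase activity: cells grown in DMEM with 10% fetal bovine serum received compound for 72 hours before a 4 hr MTS/PMS step and reading at 492 nm.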

786-O = conditions: Homo sapiens, 786-0, kidney
Method in brief: as §1

AN3CA = conditions: Homo sapiens, AN3-CA, endometrial
Method in brief: as §1

ASPC-1 = conditions: Homo sapiens, ASPC1; ASPC-1, pancreas
Method in brief: as §1

CALU-6 = conditions: Homo sapiens; CALU-6, lung
Method in brief: as §1

COLO-205 = conditions: Homo sapiens; COLO-205, colon
Method in brief: as §1

HEP-3B = conditions: Homo sapiens, Hep3B, liver
Method in brief: as §1

HEP-G2 = conditions: Homo sapiens, HepG2; HEP-G2, hepatocellular carcinoma
Method in brief: as §1

HPAF-II = conditions: Homo sapiens, pancreas
Method in brief: as §1

HT-1080 = conditions: Homo sapiens; HT-1080, fibrosarcoma
Method in brief: as §1

Kato111 = conditions: Homo sapiens; Kato111, gastric carcinoma
Method in brief: as §1

LOVO = conditions: Homo sapiens, colorectal carcinoma
Method in brief: as §1

MCF-7 = conditions: Homo sapiens, MCF7; MCF-7, breast adenocarcinoma
Method in brief: as §1

MKN-45 = conditions: Homo sapiens; MKN-45, stomach
Method in brief: as §1

NCI-H1993 = conditions: Homo sapiens; NCI-H1993, lung adenocarcinoma
Method in brief: as §1

NCI-H358 = conditions: Homo sapiens; NCI-H358, non-small cell lung cancer, brancioalveolar carcinoma
Method in brief: as §1

NCI-H441 = conditions: Homo sapiens; NCI-H441, lung papillary adenocarcinoma
Method in brief: as §1

NCI-H520 = conditions: Homo sapiens; NCI-H520, squamous cell lung carcinoma
Method in brief: as §1

NCI-H526 = conditions: Homo sapiens; NCI-H526, lung carcinoma, variant small cell lung cancer
Method in brief: as §1

NCI-H661 = conditions: Homo sapiens; NCI-H661, large cell lung carcinoma
Method in brief: as §1

NTERA-2 c1. D1 = conditions: Homo sapiens, NTERA2; NTERA-2 c1. D1, testis pluripotent embryonal carcinoma
Method in brief: as §1

PANC-1 = conditions: Homo sapiens; PANC-1, pancreas epithelioid carcinoma
Method in brief: as §1

PLC/PRF/5 = conditions: Homo sapiens; PLC/PRF/5, liver
Method in brief: as §1

RT112 = conditions: RT-112; RT112, human urinary bladder cell carcinoma
Method in brief: as §1

RT4 = conditions: RT-4; RT4, human urinary bladder cell carcinoma
Method in brief: as §1

SK-LMS-1 = conditions: Homo sapiens; SK-LMS-1, leiomyosarcoma
Method in brief: as §1

SK-OV-3 = conditions: Homo sapiens; SK-OV-3, ovary
Method in brief: as §1

SNU-16 = conditions: Homo sapiens; SNU-16, gastric Carcinoma
Method in brief: as §1

SNU475 = conditions: Homo sapiens, SNU-475; SNU475, liver
Method in brief: as §1

SW480 = conditions: Homo sapiens; SW480, colon
Method in brief: as §1

SW620 = conditions: Homo sapiens, SW-620; SW620, colorectal adenocarcinoma
Method in brief: as §1

SW780 = conditions: Homo sapiens; SW780, bladder
Method in brief: as §1

U937 = conditions: Homo sapiens, U-937; U937, monocyte histocytic lymphoma
Method in brief: as §1

WIDR = conditions: Homo sapiens, colorectal adenocarcinoma
Method in brief: as §1

GI50 (SK-MEL-2): 0.154 µM
Compound: Cn1ccc(S(=O)(=O)N2CCC[C@@H](Nc3nccc(-c4c(-c5cccc(O)c5)nc5occn45)n3)C2)n1 [Compound 17, (R)-3-(5-(2-(1-(1-methyl-1H-pyrazol-3-ylsulfonyl)piperidin-3-ylamino)pyrimidin-4-yl)imidazo[2,1-b]oxazol-6-yl)phenol]

GI50 (786-O): 18.2 µM
GI50 (ASPC-1): 6.33 µM
GI50 (CALU-6): 2.97 µM
GI50 (COLO-205): 0.25 µM
GI50 (HEP-3B): 3.16 µM
GI50 (HEP-G2): 1.38 µM
GI50 (HT-1080): 26.8 µM
GI50 (LOVO): 2.17 µM
GI50 (MCF-7): 12.5 µM
GI50 (MKN-45): 21.4 µM
GI50 (NCI-H1993): 26.2 µM
GI50 (NCI-H358): 7.5 µM
GI50 (NCI-H441): 17.8 µM
GI50 (NCI-H520): 20.2 µM
GI50 (NCI-H526): 58.9 µM
GI50 (NCI-H661): 16.2 µM
GI50 (PANC-1): 29.7 µM
GI50 (SK-LMS-1): 15.2 µM
GI50 (SK-OV-3): 13.7 µM
GI50 (SNU-16): 15.7 µM
GI50 (SNU475): 29.1 µM
GI50 (SW480): 8.27 µM
GI50 (SW620): 22.8 µM
GI50 (SW780): 9.1 µM
GI50 (U937): 20.2 µM
Compound: Cn1ccc(S(=O)(=O)N2CCC[C@@H](Nc3nccc(-c4c(-c5cccc(OCOP(=O)(O)O)c5)nc5occn45)n3)C2)n1 [Compound 19, (R)-(3-(5-(2-(1-(1-methyl-1H-pyrazol-3-ylsulfonyl)piperidin-3-ylamino)pyrimidin-4-yl)imidazo[2,1-b]oxazol-6-yl)phenoxy)methyl dihydrogen phosphate]
GI50 (AN3CA): 20.1 µM
GI50 (HPAF-II): 5.78 µM
GI50 (Kato111): 6.11 µM
GI50 (NTERA-2 c1. D1): 5.32 µM
GI50 (PLC/PRF/5): 13.6 µM
GI50 (RT112): 1.92 µM
GI50 (RT4): 10 µM
GI50 (WIDR): 20.2 µM
